The values below come from paper PMC4784480 (FEBS letters, 2010).

The assay addresses T1, Type II NADH dehydrogenase (Plasmodium falciparum, UniProt Q8I302).
T1 sequence (Q8I302 24-533): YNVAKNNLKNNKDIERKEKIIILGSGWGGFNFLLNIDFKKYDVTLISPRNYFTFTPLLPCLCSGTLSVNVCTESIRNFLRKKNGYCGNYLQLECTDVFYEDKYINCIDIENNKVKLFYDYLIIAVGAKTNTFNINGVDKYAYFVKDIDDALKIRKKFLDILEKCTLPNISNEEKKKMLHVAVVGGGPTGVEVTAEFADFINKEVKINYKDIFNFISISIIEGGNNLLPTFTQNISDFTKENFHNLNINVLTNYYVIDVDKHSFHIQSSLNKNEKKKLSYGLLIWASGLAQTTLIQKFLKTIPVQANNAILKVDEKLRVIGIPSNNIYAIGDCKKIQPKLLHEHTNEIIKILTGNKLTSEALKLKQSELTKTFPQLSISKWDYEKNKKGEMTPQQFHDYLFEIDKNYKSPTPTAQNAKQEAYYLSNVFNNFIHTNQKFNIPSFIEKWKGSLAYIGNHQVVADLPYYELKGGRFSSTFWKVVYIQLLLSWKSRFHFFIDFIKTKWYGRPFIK
Description: NADH oxidation at […] nm, parasite cell-free extract. It counts as biochemical. Conditions: concentration not given.

Turning to `c1ccc2c(c1)[I+]c1ccccc1-2` [DPI, diphenylene iodonium chloride], under “inhibitor of MQ-4-dependent NADH oxidation”, the “NADH oxidation at 340 nm, parasite cell-free extract” value is given as “sensitive to diphenylene iodonium chloride (DPI), a classical Type II NADH:dehydrogenase inhibitor”.
As to `CCCCCCCCCCC1=C(C)C(=O)C(OC)=C(OC)C1=O` [decylubiquinone], the “NADH oxidation at 340 nm, parasite cell-free extract” value (electron acceptor with NADH) is given as “Without MQ-4 or decylubiquinone addition no NADH oxidation was observed”.
